Measurements reported in PMC12834961 (Scientific Reports, 2025).

Target: epidermal growth factor receptor (EGFR) (Homo sapiens, UniProt P00533)
Experiment: SPR
Type: binding

epidermal growth factor receptor (EGFR), sequence (P00533 25-1210): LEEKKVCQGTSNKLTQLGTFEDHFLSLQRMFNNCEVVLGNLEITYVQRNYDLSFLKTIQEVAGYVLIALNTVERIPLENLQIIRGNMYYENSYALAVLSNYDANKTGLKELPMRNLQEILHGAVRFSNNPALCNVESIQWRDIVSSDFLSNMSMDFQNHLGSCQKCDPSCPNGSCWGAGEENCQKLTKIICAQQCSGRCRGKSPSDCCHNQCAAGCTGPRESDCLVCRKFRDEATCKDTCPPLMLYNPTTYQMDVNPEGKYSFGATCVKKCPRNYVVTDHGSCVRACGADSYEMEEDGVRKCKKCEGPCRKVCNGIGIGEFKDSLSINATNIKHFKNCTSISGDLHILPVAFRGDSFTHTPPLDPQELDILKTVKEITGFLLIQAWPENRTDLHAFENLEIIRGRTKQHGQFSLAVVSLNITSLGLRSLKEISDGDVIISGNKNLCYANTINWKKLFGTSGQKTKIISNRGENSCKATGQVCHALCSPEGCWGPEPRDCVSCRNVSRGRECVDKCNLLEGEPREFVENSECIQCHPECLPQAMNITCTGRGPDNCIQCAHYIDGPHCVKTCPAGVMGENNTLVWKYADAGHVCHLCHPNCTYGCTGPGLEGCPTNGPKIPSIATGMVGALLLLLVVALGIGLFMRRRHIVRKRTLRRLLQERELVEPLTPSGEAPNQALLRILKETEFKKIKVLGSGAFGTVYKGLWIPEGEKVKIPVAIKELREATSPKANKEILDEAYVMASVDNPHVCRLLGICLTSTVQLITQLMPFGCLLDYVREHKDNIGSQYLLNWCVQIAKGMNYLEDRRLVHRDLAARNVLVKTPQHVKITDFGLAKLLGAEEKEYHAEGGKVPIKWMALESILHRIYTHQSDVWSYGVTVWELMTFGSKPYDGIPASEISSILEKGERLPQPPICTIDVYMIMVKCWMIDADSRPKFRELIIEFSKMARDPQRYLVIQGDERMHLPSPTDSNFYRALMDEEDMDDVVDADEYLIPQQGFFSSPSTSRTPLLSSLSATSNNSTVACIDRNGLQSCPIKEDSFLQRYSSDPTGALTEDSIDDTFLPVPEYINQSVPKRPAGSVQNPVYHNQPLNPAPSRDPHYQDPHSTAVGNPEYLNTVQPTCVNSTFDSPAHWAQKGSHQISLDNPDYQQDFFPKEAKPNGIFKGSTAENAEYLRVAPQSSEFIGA

**Q.** For `O=c1c(-c2ccc(O[C@@H]3O[C@H](CO)[C@@H](O)[C@H](O)[C@H]3O)cc2)coc2cc(O)cc(O)c12` [Sop, Sophoricoside], which Kd is on record?
**A.** Its Kd is about 56.1 µM.
